From patent US20240132484A1, “BROAD SPECTRUM ANTIVIRAL COMPOUNDS TARGETING THE SKI COMPLEX” (priority 2020, published 2024)
Several values for one entry are separate records, joined by “and”; a condition that tells them apart may be missing. Equal entries are not always repeated. Where two headings read alike, the source gives them in different places.

Legend:
SARS2 = type: cell-based, SARS-CoV-2; details: for Infection Data, Average, Mean percentage infection relative to DMSO control: Average of Exp 1 (SMW506) and Exp 2 (SMW507); for Infection Data, Percentage Infection Relative to Appropriate DMSO Control: single well, avg background subtraction; for Percentage Inhibition Average 1 μM / Screening data (Relative infection to DMSO controls) Average 1 μM: SARS2, 1 μM; for Screening data (Relative infection to DMSO controls) Average 1 μM / Screening data (Relative infection to DMSO controls) Average 5 μM / Screening data (Relative infection to DMSO controls) Average 10 μM / Screening data (Relative infection to DMSO controls) Average 25 μM / Screening data (Relative infection to DMSO controls) Average 50 μM / Average (relative infection to DMSO over the 5 tested concentrations): 100=DMSO control; for Percentage Inhibition Average 5 μM / Screening data (Relative infection to DMSO controls) Average 5 μM: SARS2, 5 μM; for Percentage Inhibition Average 10 μM / Screening data (Relative infection to DMSO controls) Average 10 μM: SARS2, 10 μM; for Percentage Inhibition Average 25 μM / Screening data (Relative infection to DMSO controls) Average 25 μM: SARS2, 25 μM; for Percentage Inhibition Average 50 μM / Screening data (Relative infection to DMSO controls) Average 50 μM: SARS2, 50 μM; for Average (relative infection to DMSO over the 5 tested concentrations): SARS2, average over 1 to 50 uM; for Percentage Infection Relative to Appropriate DMSO Control with Avg Background Subtraction: Nunc Celigo plates, listed as SICLS39; for Infection Data, Average, Mean: average of Exp 1-2 (SMW491, SMW492)
cells (nuclei count) = details: for Toxicity Data, Average, Mean (percentage relative to appropriate DMSO control): average of Exp 1 and Exp 2, n=4; for Relative cell count to DMSO controls, Average 1 μM / Relative cell count to DMSO controls, Average 5 μM / Relative cell count to DMSO controls, Average 10 μM / Relative cell count to DMSO controls, Average 25 μM / Relative cell count to DMSO controls, Average 50 μM: toxicity data, 100=DMSO control; for Toxicity Data, Percentage Relative to Appropriate DMSO Control: single well; for Relative cell count to DMSO controls, Average (for correlation analysis): average value over the 5 tested concentrations (1 to 50 uM); for Toxicity Data, Average, Mean percentage relative to DMSO control: Average of Exp 1 (SMW491) and Exp 2 (SMW492)

## COc1ccc(CNCCc2ccccc2F)c(OCC(O)CN2CCOCC2)c1 (stereo not drawn) [SILCS49]
SARS2; n=4, 1 uM
  Infection Data, Average, Mean percentage infection relative to DMSO control: 90.24%
SARS2; n=4, 5 uM
  Infection Data, Average, Mean percentage infection relative to DMSO control: 54.75%
SARS2; n=4, 10 uM
  Infection Data, Average, Mean percentage infection relative to DMSO control: 29.10%
SARS2; n=4, 25 uM
  Infection Data, Average, Mean percentage infection relative to DMSO control: 27.11%
SARS2; n=4, 50 uM
  Infection Data, Average, Mean percentage infection relative to DMSO control: 13.54%
SARS2; Exp 1 (SMW506), 1 uM
  Infection Data, Percentage Infection Relative to Appropriate DMSO Control: 101.13% and 94.70%
SARS2; Exp 1 (SMW506), 5 uM
  Infection Data, Percentage Infection Relative to Appropriate DMSO Control: 55.30% and 50.40%
SARS2; Exp 1 (SMW506), 10 uM
  Infection Data, Percentage Infection Relative to Appropriate DMSO Control: 38.04% and 34.18%
SARS2; Exp 1 (SMW506), 25 uM
  Infection Data, Percentage Infection Relative to Appropriate DMSO Control: 27.25% and 33.31%
SARS2; Exp 1 (SMW506), 50 uM
  Infection Data, Percentage Infection Relative to Appropriate DMSO Control: 9.17% and 7.35%
SARS2; Exp 2 (SMW507), 1 uM
  Infection Data, Percentage Infection Relative to Appropriate DMSO Control: 67.31% and 97.84%
SARS2; Exp 2 (SMW507), 5 uM
  Infection Data, Percentage Infection Relative to Appropriate DMSO Control: 52.91% and 60.38%
SARS2; Exp 2 (SMW507), 10 uM
  Infection Data, Percentage Infection Relative to Appropriate DMSO Control: 23.33% and 20.87%
SARS2; Exp 2 (SMW507), 25 uM
  Infection Data, Percentage Infection Relative to Appropriate DMSO Control: 29.98% and 17.91%
SARS2; Exp 2 (SMW507), 50 uM
  Infection Data, Percentage Infection Relative to Appropriate DMSO Control: 19.58% and 18.05%
SARS2
  Percentage Inhibition Average 1 μM: 9.76%
  Screening data (Relative infection to DMSO controls) Average 1 μM: 90.24
  Percentage Inhibition Average 5 μM: 45.25%
  Screening data (Relative infection to DMSO controls) Average 5 μM: 54.75
  Percentage Inhibition Average 10 μM: 70.90%
  Screening data (Relative infection to DMSO controls) Average 10 μM: 29.10
  Percentage Inhibition Average 25 μM: 72.89%
  Screening data (Relative infection to DMSO controls) Average 25 μM: 27.11
  Percentage Inhibition Average 50 μM: 86.46%
  Screening data (Relative infection to DMSO controls) Average 50 μM: 13.54
  Average (relative infection to DMSO over the 5 tested concentrations): 42.95
Cells (nuclei count); 1 uM
  Toxicity Data, Average, Mean (percentage relative to appropriate DMSO control): 104.43%
Cells (nuclei count)
  Relative cell count to DMSO controls, Average 1 μM: 104.43
  Relative cell count to DMSO controls, Average 5 μM: 113.44
  Relative cell count to DMSO controls, Average 10 μM: 120.89
  Relative cell count to DMSO controls, Average 25 μM: 115.31
  Relative cell count to DMSO controls, Average 50 μM: 98.89
  Relative cell count to DMSO controls, Average (for correlation analysis): 110.59
Cells (nuclei count); 5 uM
  Toxicity Data, Average, Mean (percentage relative to appropriate DMSO control): 113.44%
Cells (nuclei count); 10 uM
  Toxicity Data, Average, Mean (percentage relative to appropriate DMSO control): 120.89%
Cells (nuclei count); 25 uM
  Toxicity Data, Average, Mean (percentage relative to appropriate DMSO control): 115.31%
Cells (nuclei count); 50 uM
  Toxicity Data, Average, Mean (percentage relative to appropriate DMSO control): 98.89%
Cells (nuclei count); Exp 1 (SMW506), 1 uM
  Toxicity Data, Percentage Relative to Appropriate DMSO Control: 91% and 100%
Cells (nuclei count); Exp 1 (SMW506), 5 uM
  Toxicity Data, Percentage Relative to Appropriate DMSO Control: 103% and 110%
Cells (nuclei count); Exp 1 (SMW506), 10 uM
  Toxicity Data, Percentage Relative to Appropriate DMSO Control: 111% and 115%
Cells (nuclei count); Exp 1 (SMW506), 25 uM
  Toxicity Data, Percentage Relative to Appropriate DMSO Control: 109% and 115%
Cells (nuclei count); Exp 1 (SMW506), 50 uM
  Toxicity Data, Percentage Relative to Appropriate DMSO Control: 97% and 101%
Cells (nuclei count); Exp 2 (SMW507), 1 uM
  Toxicity Data, Percentage Relative to Appropriate DMSO Control: 111% and 116%
Cells (nuclei count); Exp 2 (SMW507), 5 uM
  Toxicity Data, Percentage Relative to Appropriate DMSO Control: 115% and 126%
Cells (nuclei count); Exp 2 (SMW507), 10 uM
  Toxicity Data, Percentage Relative to Appropriate DMSO Control: 124% and 133%
Cells (nuclei count); Exp 2 (SMW507), 25 uM
  Toxicity Data, Percentage Relative to Appropriate DMSO Control: 112% and 125%
Cells (nuclei count); Exp 2 (SMW507), 50 uM
  Toxicity Data, Percentage Relative to Appropriate DMSO Control: 91% and 107%

## CCN(CC)CCN(Cc1cc(C)c(Br)s1)Cc1cc(C)c(Br)s1 [SILCS39]
SARS2; Exp 1 (SMW491), 1 uM
  Percentage Infection Relative to Appropriate DMSO Control with Avg Background Subtraction: 94.45% and 94.76%
SARS2; Exp 1 (SMW491), 5 uM
  Percentage Infection Relative to Appropriate DMSO Control with Avg Background Subtraction: 61.21% and 63.14%
SARS2; Exp 1 (SMW491), 10 uM
  Percentage Infection Relative to Appropriate DMSO Control with Avg Background Subtraction: 26.66% and 13.52%
SARS2; Exp 1 (SMW491), 25 uM
  Percentage Infection Relative to Appropriate DMSO Control with Avg Background Subtraction: 1.98% and 2.03%
SARS2; Exp 2 (SMW492), 1 uM
  Percentage Infection Relative to Appropriate DMSO Control with Avg Background Subtraction: 55.17% and 68.37%
SARS2; Exp 2 (SMW492), 5 uM
  Percentage Infection Relative to Appropriate DMSO Control with Avg Background Subtraction: 40.93% and 42.02%
SARS2; Exp 2 (SMW492), 10 uM
  Percentage Infection Relative to Appropriate DMSO Control with Avg Background Subtraction: 21.95% and 19.13%
SARS2; Exp 2 (SMW492), 25 uM
  Percentage Infection Relative to Appropriate DMSO Control with Avg Background Subtraction: 5.42% and 6.99%
SARS2; Exp 2 (SMW492), 50 uM
  Percentage Infection Relative to Appropriate DMSO Control with Avg Background Subtraction: 5.19% and 10.37%
SARS2
  Percentage Inhibition Average 1 μM: 21.81%
  Screening data (Relative infection to DMSO controls) Average 1 μM: 78.19
  Percentage Inhibition Average 5 μM: 48.17%
  Screening data (Relative infection to DMSO controls) Average 5 μM: 51.83
  Percentage Inhibition Average 10 μM: 79.68%
  Screening data (Relative infection to DMSO controls) Average 10 μM: 20.32
  Percentage Inhibition Average 25 μM: 95.89%
  Screening data (Relative infection to DMSO controls) Average 25 μM: 4.11
  Percentage Inhibition Average 50 μM: 93.60%
  Screening data (Relative infection to DMSO controls) Average 50 μM: 6.40
  Average (relative infection to DMSO over the 5 tested concentrations): 32.17
SARS2; n 4, 1 uM
  Infection Data, Average, Mean: 78.19%
SARS2; n 4, 5 uM
  Infection Data, Average, Mean: 51.83%
SARS2; n 4, 10 uM
  Infection Data, Average, Mean: 20.32%
SARS2; n 4, 25 uM
  Infection Data, Average, Mean: 4.11%
SARS2; n 4, 50 uM
  Infection Data, Average, Mean: 6.40%
Cells (nuclei count)
  Relative cell count to DMSO controls, Average 1 μM: 107.69
  Relative cell count to DMSO controls, Average 5 μM: 114.94
  Relative cell count to DMSO controls, Average 10 μM: 149.83
  Relative cell count to DMSO controls, Average 25 μM: 128.15
  Relative cell count to DMSO controls, Average 50 μM: 46.35
  Relative cell count to DMSO controls, Average (for correlation analysis): 109.39
Cells (nuclei count); n=4, 1 uM
  Toxicity Data, Average, Mean percentage relative to DMSO control: 107.69%
Cells (nuclei count); n=4, 5 uM
  Toxicity Data, Average, Mean percentage relative to DMSO control: 114.94%
Cells (nuclei count); n=4, 10 uM
  Toxicity Data, Average, Mean percentage relative to DMSO control: 149.83%
Cells (nuclei count); n=4, 25 uM
  Toxicity Data, Average, Mean percentage relative to DMSO control: 128.15%
Cells (nuclei count); n=4, 50 uM
  Toxicity Data, Average, Mean percentage relative to DMSO control: 46.35%

## CC1=C(C(=O)NCC2CCCCC2)C(c2cccs2)NC(=O)N1 (stereo not drawn) [SILCS70]
SARS2
  Percentage Inhibition Average 1 μM: 71.98%
  Screening data (Relative infection to DMSO controls) Average 1 μM: 28.02
  Percentage Inhibition Average 5 μM: 38.83%
  Screening data (Relative infection to DMSO controls) Average 5 μM: 61.17
  Percentage Inhibition Average 10 μM: 10.99%
  Screening data (Relative infection to DMSO controls) Average 10 μM: 89.01
  Percentage Inhibition Average 25 μM: −45.91%
  Screening data (Relative infection to DMSO controls) Average 25 μM: 145.91
  Percentage Inhibition Average 50 μM: −47.89%
  Screening data (Relative infection to DMSO controls) Average 50 μM: 147.89
  Average (relative infection to DMSO over the 5 tested concentrations): 94.40
Cells (nuclei count)
  Relative cell count to DMSO controls, Average 1 μM: 130.04
  Relative cell count to DMSO controls, Average 5 μM: 111.32
  Relative cell count to DMSO controls, Average 10 μM: 104.3
  Relative cell count to DMSO controls, Average 25 μM: 93.9
  Relative cell count to DMSO controls, Average 50 μM: 79.59
  Relative cell count to DMSO controls, Average (for correlation analysis): 103.83

## COCC1=C(C(=O)NCC2CCC2)C(c2cccs2)NC(=O)N1 (stereo not drawn) [SILCS56]
SARS2
  Percentage Inhibition Average 1 μM: 31.59%
  Screening data (Relative infection to DMSO controls) Average 1 μM: 68.41
  Percentage Inhibition Average 5 μM: 44.15%
  Screening data (Relative infection to DMSO controls) Average 5 μM: 55.85
  Percentage Inhibition Average 10 μM: 29.24%
  Screening data (Relative infection to DMSO controls) Average 10 μM: 70.76
  Percentage Inhibition Average 25 μM: 2.27%
  Screening data (Relative infection to DMSO controls) Average 25 μM: 97.73
  Percentage Inhibition Average 50 μM: −21.04%
  Screening data (Relative infection to DMSO controls) Average 50 μM: 121.04
  Average (relative infection to DMSO over the 5 tested concentrations): 82.76
Cells (nuclei count)
  Relative cell count to DMSO controls, Average 1 μM: 120.34
  Relative cell count to DMSO controls, Average 5 μM: 119.22
  Relative cell count to DMSO controls, Average 10 μM: 119.65
  Relative cell count to DMSO controls, Average 25 μM: 104.41
  Relative cell count to DMSO controls, Average 50 μM: 89.59
  Relative cell count to DMSO controls, Average (for correlation analysis): 110.64
